According to US20070135431A1, “INHIBITORS OF HISTONE DEACETYLASE FOR THE TREATMENT OF DISEASE” (KALYPSYS, INC, priority 2005, published 2007):

Columns and labels:
[1] = tested on: HDAC; test: In vitro HDAC-inhibition assay (Fluor de Lys fluorescent activity assay); format: biochemical; conditions: HDAC enzyme source (e.g. nuclear extract or immunopurified HDAC complexes), Fluor de Lys substrate, 30 minutes RT
Method: 1) In vitro HDAC-inhibition Assay:
This assay measures a compound's ability to inhibit acetyl-lysine deacetylation in vitro and was used as both a primary screening method as well as for IC50 determinations of confirmed inhibitors. The assay is performed in vitro using an HDAC enzyme source (e.g. partially purified nuclear extract or immunopurified HDAC complexes) and a proprietary fluorescent substrate/developer system (HDAC Quantizyme Fluor de Lys Fluorescent Activity Assay, BIOMOL). The assay is run in 1,536-well Greiner white-bottom plates using the following volumes and order of addition: • Step 1: Enzyme (2.5 μL) source added to plate (from refrigerated container) • Step 2: Compounds (50 nL) added with pin transfer device • Step 3: Fluor de Lys (2.5 μL) substrate added, incubate at RT, 30 minutes • Step 4: Developer (5 μL) solution is added (containing TSA), to stop reaction • Step 5: Plate Reader—data collection
The deacetylated fluorophore is excited with 360 nm light and the emitted light (460 nm) is detected on an automated fluorometric plate reader (Aquest, Molecular Devices).

[2] = tested on: HDAC in cells; test: Cellular HDAC inhibition (cellular histone hyperacetylation / cytotoxicity assays; Table 1 only says Cellular IC50); format: cell-based; conditions: transformed cell lines (e.g. HeLa, A549, MCF-7); cell line not given
Method: 2) Cellular Histone Hyperacetylation Assays:
These two secondary assays evaluate a compound's ability to inhibit HDAC in cells by measuring cellular histone acetylation levels. The cytoblot facilitates quantitative EC50 information for cellular HDAC inhibition. Transformed cell lines (e.g. HeLa, A549, MCF-7) are cultured under standard media and culture conditions prior to plating.
Cells (approx. 2,500/well) are allowed to adhere 10-24 hours to wells of a 384-well Greiner PS assay plate in media containing 1-5% serum. Cells are treated with appropriate compound and specific concentrations for 0 to 24 hours. Cells are washed once with PBS (60 μL) and then fixed (95% ethanol, 5% acetic acid or 2% PFA) for 1 minute at RT (30 μL). Cells are blocked with 1% BSA for 1 hour and washed and stained with antibody (e.g. anti-Acetylated Histone H3, Upstate Biotechnology), followed by washing and incubation with an appropriate secondary antibody conjugated to HRP or fluorophore. For luminescence assays, signal is generated using Luminol substrate (Santa Cruz Biotechnology) and detected using an Aquest plate reader (Molecular Devices).
3) Differential Cytotoxicity Assay:
HDAC inhibitors display differential cytotoxicity toward certain transformed cell lines. Cells are cultured according to standard ATCC recommended conditions that are appropriate to each cell type. Compounds were tested for their ability to kill different cell types (normal and transformed) using the ATPlite luminescence ATP detection assay system (Perkin Elmer). Assays are run in either 384-well or 1536-well Greiner PS plates. Cells (30 μL or 5 μL, respectively) are dispensed using either multichannel pipette for 384-well plates, or proprietary Kalypsys bulk liquid dispenser for 1536-well plates. Compounds added using proprietary pin-transfer device (500 nL or 5 nL) and incubated 5 to 30 hours prior to analysis. Luminescence is measured using Aquest plate reader (Molecular Devices).

SMILES | IC50 [1] [nM] | IC50 [2] [nM]
CC(=O)SCC(=O)c1ccc(NS(=O)(=O)c2ccc(OCc3ccccn3)cc2)cc1 [Example 15, Thioacetic acid S-(2-oxo-2-{4-[4-(pyridin-2-ylmethoxy)-benzenesulfonylamino]-phenyl}-ethyl) ester] | ≤ 1000 | ≤ 1000
CC(=O)SCC(=O)c1ccc(NS(=O)(=O)c2ccc(Oc3ccc(Cl)cc3)cc2)cc1 [Example 04, Thioacetic acid S-(2-{4-[4-(4-chloro-phenoxy)-benzenesulfonylamino]-phenyl}-2-oxo-ethyl) ester] | ≤ 1000 | ≤ 1000
CC(=O)SCC(=O)c1ccc(NS(=O)(=O)c2ccc(OCCCCc3ccccc3)cc2)nc1 [Example 14, Thioacetic acid S-(2-oxo-2-{6-[4-(4-phenyl-butoxy)-benzenesulfonylamino]-pyridin-3-yl}-ethyl) ester] | ≤ 1000 | ≤ 1000
CC(=O)SCC(=O)c1ccc(NS(=O)(=O)c2ccc(OCCCN3CCOCC3)cc2)nc1 [Example 11, Thioacetic acid S-(2-{6-[4-(3-morpholin-4-yl-propoxy)-benzenesulfonylamino]-pyridin-3-yl}-2-oxo-ethyl) ester] | ≤ 1000 | ≤ 1000
CC(=O)SCC(=O)c1ccc(NS(=O)(=O)c2ccc(OCCN3CCCCC3)cc2)cc1 [Example 19, Thioacetic acid S-(2-oxo-2-{4-[4-(2-piperidin-1-yl-ethoxy)-benzenesulfonylamino]-phenyl}-ethyl) ester] | ≤ 1000 | ≤ 1000
CC(=O)SCC(=O)c1ccc(NS(=O)(=O)c2ccc(S(=O)(=O)N3CCOCC3)cc2)cc1 [Example 05, Thioacetic acid S-(2-{4-[4-(morpholine-4-sulfonyl)-benzenesulfonylamino]-phenyl}-2-oxo-ethyl) ester] | ≤ 1000 | ≤ 1000
CC(=O)SCC(=O)c1ccc(NS(=O)(=O)c2ccc(NCc3ccccn3)cc2)cc1 [Example 08, Thioacetic acid S-[2-oxo-2-(4-{4-[(pyridin-2-ylmethyl)-amino]-benzenesulfonylamino}-phenyl)-ethyl] ester] | ≤ 1000 | ≤ 1000
CC(=O)SCC(=O)c1ccc(NS(=O)(=O)c2ccc(OCCCc3ccccn3)cc2)cc1 [Example 17, Thioacetic acid S-(2-oxo-2-{4-[4-(3-pyridin-2-yl-propoxy)-benzenesulfonylamino]-phenyl}-ethyl) ester] | ≤ 1000 | ≤ 1000
CC(=O)SCC(=O)c1ccc(NS(=O)(=O)c2ccc(CN3CCOCC3)cc2)cc1 [Example 07, Thioacetic acid S-{2-[4-(4-morpholin-4-ylmethyl-benzenesulfonylamino)-phenyl]-2-oxo-ethyl} ester] | ≤ 1000 | ≤ 1000
CC(=O)SCC(=O)c1ccc(NS(=O)(=O)c2ccc(OCCc3ccccn3)cc2)nc1 [Example 18, Thioacetic acid S-(2-oxo-2-{6-[4-(2-pyridin-2-yl-ethoxy)-benzenesulfonylamino]-pyridin-3-yl}-ethyl) ester] | ≤ 1000 | ≤ 1000
CC(=O)SCC(=O)c1ccc(NS(=O)(=O)c2ccc(OC3CCN(C)CC3)cc2)cc1 [Example 10, Thioacetic acid S-(2-{4-[4-(1-methyl-piperidin-4-yloxy)-benzenesulfonylamino]-phenyl}-2-oxo-ethyl) ester] | ≤ 1000 | ≤ 1000
CC(=O)SCC(=O)c1ccc(NS(=O)(=O)c2ccc(Oc3ccccc3C)cc2)cc1 [Example 01, Thioacetic acid S-{2-oxo-2-[4-(4-o-tolyloxy-benzenesulfonylamino)-phenyl]-ethyl} ester] | ≤ 1000 | ≤ 1000
CC(=O)SCC(=O)c1ccc(NS(=O)(=O)c2ccc(OCCCCc3ccccc3)cc2)cc1 [Example 13, Thioacetic acid S-(2-oxo-2-{4-[4-(4-phenyl-butoxy)-benzenesulfonylamino]-phenyl}-ethyl) ester] | ≤ 1000 | ≤ 1000

Now from value to molecule, other results behind:

IC50 [1] [nM] | SMILES | IC50 [2] [nM]
≤ 1000 | CC(=O)SCC(=O)c1ccc(NS(=O)(=O)c2ccc(OCCCN3CCCC3)cc2)nc1 [Example 33, Thioacetic acid S-(2-oxo-2-{6-[4-(3-pyrrolidin-1-yl-propoxy)-benzenesulfonylamino]-pyridin-3-yl}-ethyl) ester] | ≤ 1000
≤ 1000 | CC(=O)SCC(=O)c1ccc(NS(=O)(=O)c2ccc(OCCN3CCCC3)cc2)nc1 [Example 26, Thioacetic acid S-(2-oxo-2-{6-[4-(2-pyrrolidin-1-yl-ethoxy)-benzenesulfonylamino]-pyridin-3-yl}-ethyl) ester] | ≤ 1000
≤ 1000 | CC(=O)SCC(=O)c1ccc(NS(=O)(=O)c2ccc(OCc3cccnc3)cc2)nc1 [Example 27, Thioacetic acid S-(2-oxo-2-{6-[4-(pyridin-3-ylmethoxy)-benzenesulfonylamino]-pyridin-3-yl}-ethyl) ester] | ≤ 1000
≤ 1000 | CC(=O)SCC(=O)c1ccc(NS(=O)(=O)c2ccc(OCCN3CCCCC3)cc2)nc1 [Example 24, Thioacetic acid S-(2-oxo-2-{6-[4-(2-piperidin-1-yl-ethoxy)-benzenesulfonylamino]-pyridin-3-yl}-ethyl) ester] | ≤ 1000
≤ 1000 | CC(=O)SCC(=O)c1ccc(NS(=O)(=O)c2ccc(OCc3ccccn3)cc2)nc1 [Example 23, Thioacetic acid S-(2-oxo-2-{6-[4-(pyridin-2-ylmethoxy)-benzenesulfonylamino]-pyridin-3-yl}-ethyl) ester] | ≤ 1000
≤ 1000 | CC(=O)SCC(=O)c1ccc(NS(=O)(=O)c2ccc(OCCc3ccccn3)cc2)cc1 [Example 21, Thioacetic acid S-(2-oxo-2-{4-[4-(2-pyridin-2-yl-ethoxy)-benzenesulfonylamino]-phenyl}-ethyl) ester] | ≤ 1000
≤ 1000 | CC(=O)SCC(=O)c1ccc(NS(=O)(=O)c2ccc(OCC3CCCN(C)C3)cc2)nc1 (stereo not drawn) [Example 31, Thioacetic acid S-(2-{6-[4-(1-methyl-piperidin-3-ylmethoxy)-benzenesulfonylamino]-pyridin-3-yl}-2-oxo-ethyl) ester] | ≤ 1000
≤ 1000 | CC(=O)SCC(=O)c1ccc(NS(=O)(=O)c2ccc(OC(C)CN3CCCCC3)cc2)nc1 (stereo not drawn) [Example 32, Thioacetic acid S-(2-{6-[4-(1-methyl-2-piperidin-1-yl-ethoxy)-benzenesulfonylamino]-pyridin-3-yl}-2-oxo-ethyl) ester] | ≤ 1000
≤ 1000 | CC(=O)SCC(=O)c1ccc(NS(=O)(=O)c2ccc(OCCN3CCOCC3)cc2)cc1 [Example 20, Thioacetic acid S-(2-{4-[4-(2-morpholin-4-yl-ethoxy)-benzenesulfonylamino]-phenyl}-2-oxo-ethyl) ester] | ≤ 1000
≤ 1000 | CC(=O)SCC(=O)c1ccc(NS(=O)(=O)c2ccc(OC3CCCN(C)C3)cc2)nc1 (stereo not drawn) [Example 30, Thioacetic acid S-(2-{6-[4-(1-methyl-piperidin-3-yloxy)-benzenesulfonylamino]-pyridin-3-yl}-2-oxo-ethyl) ester] | ≤ 1000
≤ 1000 | CC(=O)SCC(=O)c1ccc(NS(=O)(=O)c2ccc(OCCCc3ccccn3)cc2)nc1 [Example 28, Thioacetic acid S-(2-oxo-2-{6-[4-(3-pyridin-2-yl-propoxy)-benzenesulfonylamino]-pyridin-3-yl}-ethyl) ester] | ≤ 1000
